Experimental data published in article PMC9227305, “Photoinduced Synthesis of Methylated Marine Cyclopeptide Galaxamide Analogs with Isoindolinone as Anticancer Agents” (Marine Drugs, 2022).
Like-named read-outs stand apart in the source and are kept apart here. *1 amine or outer side, *2 acyl side, *3 side chain or, on linkers, in order; H or OH if unused. Where a SMILES comes first, the peptide text is derived from it. [ ]: non-standard residue; d: D form. X1 = O=C1c2ccccc2[C@@](O)(CN(Cc2ccccc2)[*:1])N1CC(=O)[*:2]; NMeL = CN[C@@H](CC(C)C)C(=O)O

How the values were obtained:
Format in all cases: cell-based, human
p53 = experiment: Western blot of p53 level; conditions: HepG-2 cells, 48 h, increasing drug concentration
Text: (§1) The p53 tumor suppressor plays a key role in preventing tumor development. In cancers retaining wild-type p53, the function of p53 can be suppressed by a variety of factors, and the murine double minute 2 (MDM2) protein is an important endogenous cellular inhibitor of p53 [29]. Therefore, inhibiting or blocking MDM2 protein should be an efficient strategy for the development of an antitumor agent. Actually, various MDM2 inhibitors have been studied and screened in recent years, including small molecules and polypeptides. […] Considering that the isoindolinone fragment is always present in the structure of MDM2 inhibitors and plays an important role in binding to the target protein, we tried to detect the MDM2 and p53 protein levels by Western blotting to assess the inhibiting ability of cyclic peptides containing isoindolinone fragments to MDM2 oncoprotein.
(§2) HepG-2 cells (5 × 10^6 cells) in the medium were treated with different concentrations of compounds for the required time and were washed twice with ice-cold PBS. The cells were scraped into cell lysate buffer containing phenylmethanesulfonyl fluoride (PMSF) and transferred to a 1.5 mL centrifuge tube, then lysed for 20 min at 4 °C. After centrifuging (12,000 r/min) for 20 min, the supernatant was collected and measured using the BCA Protein Assay Kit (Beyotime Biotechnology Co. Ltd., Shanghai, China)). […]

HepG-2 cells [1] = conditions: 48 h; for Q4 cells (viable, lower left): human
Protocol: HepG-2 cells were treated with 0, 5.5, 11 and 22 µM of compound 8 and incubated for 48 h, then double-stained carefully by membrane-linked protein Annexin-V-fluorescein isothiocyanate (FITC) and propidium iodide (PI) for flow cytometry analysis. Generally, in the early stages of apoptosis, phosphatidylserine flips from the inner cell membrane to the surface of the cell membrane. […] Propidium iodide (PI) is a nucleic acid dye that can only cross the membrane of advanced apoptosis and necrotic cells, reddening the nucleus. Therefore, when the drug-treated cells are double-stained by the two fluorescent dyes, early and late apoptosis and necrotic cells can be clearly distinguished.
HepG-2 cells were seeded in a 6-well plate (2 × 10^5 cells per well). The different concentrations of compound 8 (0, 5.5, 11, 22 μg/mL) were added and incubated for 48 h to induce apoptosis. The collected cells were centrifuged (2000 r/min) for 5 min and resuspended in PBS (200 μL). Then, 5 μL of Annexin V-FITC was added and incubated for 10 min at room temperature away from light. Finally, 5 µL propidium iodide solution was added and incubated for 5 min away from light. The fluorescence intensity was detected by flow cytometry and analyzed by utilizing FlowJo_V10 software (FlowJo X 10.0.7r2, BD Biosciences, Franklin Lakes, NJ, USA).

HepG-2 cells [2] = experiment: Mitochondrial membrane potential, rhodamine 123 flow cytometry; conditions: control 44.9%
Protocol: A classical fluorescent dye, rhodamine 123, is selectively sequestered by active mitochondrial respiration, but is washed out in cells with decreased MMP, so that the dye fluorescence intensity reflects the level of mitochondrial activity and can be applied in the monitoring of MMP [23].
In this study, we have studied the change of MMP of HepG-2 cells after treatment with different concentrations (0, 5.5, 11 and 22 µM within 48 h) and different time periods (12, 24 and 48 h with 11 µM) of compound 8. Cells were stained with rhodamine 123 and analyzed by flow cytometry. […] The aforementioned analysis clearly discloses that the cyclic peptides can affect the mitochondrial membrane potential and induce apoptosis, consistent with the findings in cell cycle analysis.
Cells in the logarithmic phase were seeded in 6-well plates and incubated for 24 h. After refreshing the culture medium, different concentrations of compound 8 (0, 5.5, 11, 22 μM) were added and co-incubated for 48 h. Meanwhile, the cells were also treated with 11 μM of compound 8 within different time periods (12 h, 24 h, 48 h). Then, the cells were collected by trypsin digestion and washed with phosphate-buffered solution. After centrifuging (1000 r/min) for 5 min, the obtained cell precipitate was suspended in PBS (100 µL); then, 100 µL of rhodamine 123 (1 µM) was added and incubated for 20 min. The cells were centrifuged, resuspended in 600 µL PBS, and analyzed by flow cytometry (maximum excitation wavelength 507 and maximum emission wavelength 529 nm). At least 10,000 events were counted in the experiment.

MDM2 = experiment: Western blot of MDM2 level; conditions: HepG-2 cells, 48 h, increasing drug concentration
Text: as §1, §2

MDA-MB-231 cells = conditions: 48 h
Text: The antitumor activity of the prepared cyclic peptides against human hepatocellular carcinoma cells (HepG-2), human cervical cancer cell lines (HeLa) and human breast cancer cells (MDA-MB-231) was examined by MMT assay, and the mouse fibroblast L929 cells were used as the model cells to evaluate the toxicity of cyclopeptides to normal cell lines. Due to the absence of an authentic standard, taxol was chosen as a control because it is a widely used chemotherapeutic drug for the treatment of various cancers, including liver cancer.
Samples were dissolved in DMSO and diluted into different concentrations ([…], 18.75, 25, 37.5, 50, 75, 100 and 250 μM) and stored at 4 °C. Cells in the logarithmic growth phase were digested with trypsin and then seeded in 96-well plates at a density of 2 × 10^4 cells/well in 100 μL of culture medium. The cells were treated with different concentrations of the tested compound, and a blank control group without the drug was also set up. Six wells were repeated for each dose. After 48 h of co-incubation, MTT solution (100 μL, 0.5 mg/mL) was added, followed by incubation for another 4 h. After discarding the supernatant, 100 μL of DMSO was added per well, and the absorbance (OD) values were measured at 490 nm using an enzyme marker. Cell viability was calculated by the formula: Cell viability (%) = As/Ab × 100% (where As is the absorbance value of the experimental group and Ab is the absorbance value of the blank group). The obtained data were processed using SPSS19 software to obtain IC50 values.

For `CC(C)C[C@@H]1NC(=O)CN2C(=O)c3ccccc3[C@@]2(O)CN(Cc2ccccc2)C(=O)[C@H](CC(C)C)NC(=O)[C@H](CC(C)C)N(C)C(=O)[C@H](CC(C)C)NC(=O)[C@H](CC(C)C)NC1=O` [Compound 8, 3-Hydroxy-isoindolinone-cyclo-Gly-Leu-N-Me-Leu-Leu-Leu-Leu] (cyclo(LL[NMeL]L[X1]L)), the p53 protein expression (p53) was “increase”, the “Q3 cells (apoptosis cells)” value (HepG-2 cells [1]; 22 μM) was 32.4% and the “Q4 cells (viable, lower left)” value (HepG-2 cells [1]; 5.5 µM) was 86.2%. For the same molecule, the “Q4 cells (viable, lower left)” value (HepG-2 cells [1]; 11 µM) was 77.3%, the “Q4 cells (viable, lower left)” value (HepG-2 cells [1]; 22 µM) was 65.4% and the “mean mitochondrial fluorescence intensity (rhodamine 123)” value (HepG-2 cells [2]; 5.5 µM, 48 h) was 27.1%. For the same molecule, the “mean mitochondrial fluorescence intensity (rhodamine 123)” value (HepG-2 cells [2]; 11 µM, 12 h) was 29.4%, the “mean mitochondrial fluorescence intensity (rhodamine 123)” value (HepG-2 cells [2]; 11 µM, 24 h) was 24.3% and the “mean mitochondrial fluorescence intensity (rhodamine 123)” value (HepG-2 cells [2]; 11 µM, 48 h) was 20.2%. The “mean mitochondrial fluorescence intensity (rhodamine 123)” value (HepG-2 cells [2]; 22 µM, 48 h) was 14.3%, the “level of MDM2” value (MDM2) was “decreased gradually” and the IC50 (MDA-MB-231 cells) was 41.7 ± 3.2 µM.
